Data reported in PMC5666694 (Antiviral research, 2017).
Structures can show the parent of a compound that is named as a salt.

System: HIV/EBOV pseudovirion
Assay type: cell-based, Ebolavirus Zaire

## Cc1cn([C@H]2C[C@H](N=[N+]=[N-])[C@@H](CO)O2)c(=O)[nH]c1=O [AZT, Azidothymidine]
  Antiviral effect by time of compound addition: still effective even when it was introduced at a very late time points (>8 h)

## CN1[C@@H]2CC[C@H]1C[C@@H](OC(c1ccccc1)c1ccccc1)C2 [benztropine, Benztropine mesylate]
  Antiviral effect by time of compound addition: started to lose its inhibitory effect when it was added at 2 h post entry and beyond
